{"source": "patent US9326993B2", "about": "“Treatment of pulmonary and pleural fibrosis using HSP27 inhibitors” (ONCOGENEX TECHNOLOGIES INC., priority 2011, dated 2016)", "key": {"epithelial A549 cells": {"system": "epithelial A549 cells", "assay": "rTGF-β1-induced EMT in A549 cells", "assay_type": "cell-based, human", "details": "siRNA 50 nM, rTGF-β1 10 ng/ml", "method": "(§1) Mesothelial rat established cell line 4/4 RM4 cells (American Type Culture Collection—ATCC—Rockville, Md.) were seeded in Ham's F10 (Lonza), with FBS 15%. Mesothelial human established cell line MET-5A (ATCC) were seeded in Medium 199 (lonza), 1% L-glutamine, 1% penicillin-streptomycin with 10% FBS. Epithelial human cell line A549 cells (ATCC) and were seeded in Ham's F10 (lonza) with 10% FBS.\n(§2) For EMT induction and analysis, all the different cells were exposed to their respective medium containing 10 ng/ml recombinant (r)TGF-β1 (R&D system, Lille, France) for 6, 12, 24, or 48 hours.\nHSP27 siRNA were purchased from applied bios system (Courtaboeuf, France). The sense and antisense sequence were respectively: 5′-GUUCAAAGCAACCACCUGUtt-3 (SEQ ID No: 4)′ and 5′-ACAGGUGGUUGCUUUGAACtt-3′. (SEQ ID No: 5). They were used at a concentration of 50 nM. SiRNA were transfected using INTERFERin (polyplus, Illkirch, France) following the manufacturer recommendations. 5-6 hours after transfection medium were changed and cells were treated or not with 10 ng/ml TGF-β1 for 12, 24 or 48 hours. […]\n(§3) Total RNA was extracted using TRIzol (Invitrogen, Cergy Pontoise, France) from MET-5A and A549 cells treated or not with rTGF-β1 12 or 24 hours and transfected or not by HSP27 siRNA or plasmid encoding HSP27. […] Quantitative RT-PCR was performed on the cDNA using the SYBR green master mix (promega, Charbonnieres, France). […]"}, "mesothelial Met-5A cells": {"system": "mesothelial Met-5A cells", "assay": "Scratch test (migration) on Met-5A cells after rTGF-β1", "assay_type": "cell-based, human", "details": "cells treated with rTGF-β1", "method": "(§4) HSP27 siRNA were purchased from applied bios system (Courtaboeuf, France). The sense and antisense sequence were respectively: 5′-GUUCAAAGCAACCACCUGUtt-3 (SEQ ID No: 4)′ and 5′-ACAGGUGGUUGCUUUGAACtt-3′. (SEQ ID No: 5). They were used at a concentration of 50 nM. SiRNA were transfected using INTERFERin (polyplus, Illkirch, France) following the manufacturer recommendations. 5-6 hours after transfection medium were changed and cells were treated or not with 10 ng/ml TGF-β1 for 12, 24 or 48 hours. Seq ID No. 3 was used as a random control oligonucleotide.\nTherefore, HSP27 inhibition blocked this all well known features of EMT induced by TGF-β1 in cultured cells. This corresponded to HSP27 expression levels (FIG. 3G)."}, "[1]": {"system": "human mesothelial Met-5A cells", "assay": "rTGF-β1-induced EMT in Met-5A cells (western blot, RT-PCR)", "assay_type": "cell-based", "details": "siRNA 50 nM, rTGF-β1 10 ng/ml", "method": "as §1, §2, §4\nProtein extraction was made using triton X 100 during 30 min at 4° C., vortexing every 10 min. Protein dosage is made with the modified lowry kit (Biorad, Marne-la-Coquette, France). Equal amounts of protein (30-50 μg) were electrophoresed through 8 to 12% SDS polyacrylamide gels. The separate protein bands were transferred onto a PVDF membrane. The non-specific sites were saturated with a solution of PBS-tween 0.1%, nonfat milk 8%. Membranes were incubated with primary Abs over night at 4° C. Secondary Abs IgG linked to HRP (HorseRadish Peroxidase, Jackson ImmunoResearch Laboratories, PA, USA) were used at a concentration of 1/5000. Enhanced ChemiLuminescent substrat (ECL, santa cruz biotechnology, CA, USA) was used to detect the protein of interest. […]\nas §3"}}, "data": [{"substance": "HSP27 siRNA: siRNA, sense 5′-GUUCAAAGCAACCACCUGUtt-3′ (SEQ ID No: 4), antisense 5′-ACAGGUGGUUGCUUUGAACtt-3′ (SEQ ID No: 5) (sense GUUCAAAGCAACCACCUGUTT; antisense ACAGGUGGUUGCUUUGAACTT; chemistry not given here; listed as Homo sapiens)", "values": [{"measurement": "rTGF-β1 induced α-SMA", "setting": "epithelial A549 cells", "value": "inhibits"}, {"measurement": "migration capacity in scratch test", "setting": "mesothelial Met-5A cells", "value": "much weaker migration"}, {"measurement": "wound recovery by 48 h", "setting": "mesothelial Met-5A cells; 48 h", "value": "still largely unrecovered"}, {"measurement": "rTGF-β1 induced α-SMA", "setting": "[1]; Met-5A cells", "value": "inhibits"}, {"measurement": "rTGF-β1-induced E-cadherin down-regulation", "setting": "[1]; 48 h", "value": "blocks"}, {"measurement": "rTGF-β1-induced α-SMA upregulation", "setting": "[1]; 48 h", "value": "blocks"}]}]}
